Laboratory results from PMC3391261, “Characteristic Features of Kynurenine Aminotransferase Allosterically Regulated by (Alpha)-Ketoglutarate in Cooperation with Kynurenine” (PLoS ONE, 2012).
Like-named read-outs stand apart in the source and are kept apart here. One block for each molecule: values may come before it.

Legend:
PhKAT [1] = target: T1, PhKAT (Pyrococcus horikoshii, UniProt O57946); experiment: Spectrophotometric titration of PhKAT with PLP (absorbance change at 360 nm, 2-site binding model with hill slopes); set-up: species or system Pyrococcus horikoshii OT3; conditions: 25°C
Procedure: PhKAT was added to a 20 µM (final concentration) PLP solution in a final volume of 500 µL of 50 mM HEPES–NaOH buffer (pH 7.5) containing 100 mM NaCl. Titration of PhKAT with PLP was monitored by absorption spectroscopy. Aliquots of PLP (1, 2, 4, 8, 16, 32, and 64 µM) were added to the cuvette containing PhKAT at 25°C. Spectra were recorded after the addition of PLP, and the PLP-binding constant (K d) was calculated from the difference in absorbance at 360 nm, and the PLP-binding curve for PhKAT was obtained by the 2-site binding model with variable slopes using prism5.

PhKAT [2] = target: T1, PhKAT; experiment: Isothermal titration calorimetry for cofactor and substrate binding; set-up: species or system Pyrococcus horikoshii OT3; conditions: PLP binding to PhKAT; judged from shape of binding curve
Source text: To avoid air bubbles, we degassed solutions under vacuum before use. […] Power peaks were integrated, and the resultant reaction […] were plotted against the molar cofactor and/or substrate/protein ratios and fitted using the “sequential binding sites” model according to the manufacturer's instructions with origin version 5.0 (MicroCal Software), thus yielding the dissociation constant K d.

PhKAT [3] = target: T1, PhKAT; experiment: KAT transaminase kinetics, KYNA production from KYN monitored at 332 nm; conditions: 100 µM KYN; keto acid as amino acceptor
Procedure: KYNA production was monitored spectrophotometrically using a U-2810 UV–Vis spectrophotometer (Hitachi).
The transaminase abilities of KAT were assayed by measuring the rate of the KYNA production. […] KYNA production was monitored by the increase in A332 at 25°C. The quantities of KYNA were determined spectroscopically with an extinction coefficient of 9.8 mM^−1⋅cm^−1 at 332 nm.

[4] = substrate: CCC(=O)C(=O)O; experiment: purified protein, by the assay type; conditions: other: 100 µM KYN; keto acid as amino acceptor; pH 7.5; 25.0 °C
Procedure: (§1) PLP-dependent KAT activity was assayed in 500 µL of 50 mM HEPES–NaOH buffer (pH 7.5) containing 100 mM NaCl, 10 µM PhKAT, 15 µM PLP, 20 µM KYN, and 64 µM 2OG. Assays were performed at room temperature (25°C), and the reaction was initiated by the addition of 2OG. KYNA production was monitored spectrophotometrically using a U-2810 UV–Vis spectrophotometer (Hitachi).
(§2) The transaminase abilities of KAT were assayed by measuring the rate of the KYNA production. In a total volume of 500 µL, the reaction mixture contained 10 µM PhKAT (dimer: 5 µM); 12 µM PLP; 0.08, 0.1, 0.4, 0.8, 1, 1.2, 2, 4, 6, 8, 12, 16, 20 and 24 µM 2OG; 0.02, 0.08, 0.1, 0.4, 0.8, 1, 1.2, 2, 4, 6, 8, 12, 16, 20 and 24 µM OXA; 50, or 100 µM KYN; 50 mM HEPES–NaOH buffer (pH 7.5); 100 mM NaCl; 0.4, 0.8, 1, 4, 8, 12 and 16 µM α-KMB, and/or 0.4, 0.8, 1, 4, 8, 12, 16 and 20 µM α-KBA. KYNA production was monitored by the increase in A332 at 25°C. The quantities of KYNA were determined spectroscopically with an extinction coefficient of 9.8 mM^−1⋅cm^−1 at 332 nm.

[5] = substrate: CSCCC(=O)C(=O)O; experiment: purified protein, by the assay type; conditions: other: 100 µM KYN; keto acid as amino acceptor; pH 7.5; 25.0 °C
Procedure: as §1, §2

[6] = target: the molecule itself; experiment: crystal structure; co-crystals of PhKAT with PLP (1:1), PLP and 2OG (1:1:1 or 1:1:2), sitting-drop vapor diffusion at 4°C; space group C2, two chains in the asymmetric unit

B1: PhKAT (Pyrococcus horikoshii OT3) (protein)
chain: MHEDVQLNIYVHSQEGIGMEENIKSMLGDVERFFSKKALEMRASEVRELLKLVETSDIISLAGGLPNPKTFPKEIIRDILVEIMEKYADKALQYGTTKGFTPLRETLMKWLGKRYGISQDNDIMITSGSQQALDLIGRVFLNPGDIVVVEAPTYLAALQAFNFYEPQYIQIPLDDEGMKVEILEEKLKELKSQGKKVKVVYTVPTFQNPAGVTMNEDRRKYLLELASEYDFIVVEDDPYGELRYSGNPEKKIKALDNEGRVIYLGTFSKILAPGFRIGWMVGDPGIIRKMEIAKQSTDLCTNVFGQVVAWRYVDGGYLEKHIPEIRKFYKPRRDAMLEALEEFMPEGVKWTKPEGGMFIWVTLPDGIDSKKMLERAIKKGVAYVPGEAFYAHRDVKNTMRLNFTYVDEDKIMEGIKRLAETIKEELKA
Km [4]: 1.73 µM
Km [5]: 2.41 µM

B2: Kynurenine aminotransferase from Pyrococcus horikoshii OT3 (enzyme, UniProt O57946 1-428, looked up)
chain: B1 chain
modifications: PLP in a Schiff-base link with Lys269
notes: Kynurenine aminotransferase (PhKAT) of Pyrococcus horikoshii OT3, 428 residues; residues 25-428 seen in the crystal structures, residues 1-24 and the N-terminal His-tag disordered; also called PhKAT; KAT; source: E. coli BL21-CodonPlus (DE3), pET28a-PhKAT, purified (His TALON cartridge); not shown: His6, N-terminal, kept
stoichiometry N [6]: 2

Continued, values first:

Kd (PhKAT [1]; 10 µM PhKAT, pH 7.5, read-out: Kd1 (dissociation constant for PLP, first binding site)): 25.5 µM
Kd (PhKAT [1]; 10 µM PhKAT, pH 7.5, read-out: Kd2 (dissociation constant for PLP, second binding site)): 1.77 µM
Kd (PhKAT [1]; 20 µM PhKAT, pH 7.5, read-out: Kd1 (dissociation constant for PLP, first binding site)): 9.65 µM
Kd (PhKAT [1]; 20 µM PhKAT, pH 7.5, read-out: Kd2 (dissociation constant for PLP, second binding site)): 1.92 µM
dissociation constant (apparent) of second binding site in PhKAT (PhKAT [2]): approximately femtomole order
Molecule: Cc1ncc(COP(=O)(O)O)c(C=O)c1O [PLP, Pyridoxal phosphate]

H-value (allosteric sigmoidal model) (PhKAT [3]): 1.79
Molecule: CCC(=O)C(=O)O [α-KBA, 2-ketobutyric acid]

H-value (allosteric sigmoidal model) (PhKAT [3]): 3.57
Molecule: CSCCC(=O)C(=O)O [α-KMB, α-keto-γ-(methylthio) butyric acid]
